Assay results reported in patent publication US6121239A, “Peptide substrates for the identification of factor Xa” (Serbio, priority 1990, dated 2000).
Non-standard residues stand in square brackets, D forms with d. Residues, ends and D or L forms follow the SMILES beside them. *: point of attachment. pNA = O=[N+]([O-])c1ccc(N*)cc1; X1 = COC(=O)CC(=O)*; Ms = CS(=O)(=O)*

Molecular target: Factor Xa (Homo sapiens, UniProt P00742)
Assay: Activity towards Factor Xa: hydrolysis rate by variation in optical density with time (ΔOD/min)
Format: biochemical
Details: hydrolysis rate (ΔOD/min) at equimolar doses; activity of reference product CP 1 specified as 100%
Method: The activity of the peptides according to the invention towards Factor Xa was determined by one of the conventional methods, such as the one described in EP-A-0 280 160 (see page 14), the hydrolysis rate being assessed by the variation in optical density with time (ΔOD/min). The results obtained at equimolar doses have been collated in Table III below, where the activity of the reference product CP 1 is specified as being equal to 100% for the sake of convenience.

Sequence of Factor Xa (P00742 235-488 limits assumed): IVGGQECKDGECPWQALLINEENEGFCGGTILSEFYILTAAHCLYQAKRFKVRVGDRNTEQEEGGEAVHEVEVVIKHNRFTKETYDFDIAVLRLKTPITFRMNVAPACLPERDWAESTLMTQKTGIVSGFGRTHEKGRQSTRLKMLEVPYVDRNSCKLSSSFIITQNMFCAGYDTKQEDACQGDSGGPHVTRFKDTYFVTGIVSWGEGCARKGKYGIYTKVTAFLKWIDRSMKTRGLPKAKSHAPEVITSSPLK
Sequence of Factor Xa (P00742 41-179 partner limits assumed): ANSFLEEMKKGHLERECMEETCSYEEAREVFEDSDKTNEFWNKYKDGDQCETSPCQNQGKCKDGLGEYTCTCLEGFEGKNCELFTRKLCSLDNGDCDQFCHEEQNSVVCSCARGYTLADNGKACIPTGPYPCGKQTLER

| Activity (activity towards Factor Xa) [%] | SMILES |
| --- | --- |
| 115 | COC(=O)CC(=O)N[C@H](CC(C)C)C(=O)NCC(=O)N[C@@H](CCCNC(=N)N)C(=O)Nc1ccc([N+](=O)[O-])cc1 [Ex. 1, MM-D-Leu-Gly-L-Arg-pNA.AcOH] |
| 132 | CCOC(=O)CC(=O)N[C@H](CC(C)C)C(=O)NCC(=O)N[C@@H](CCCNC(=N)N)C(=O)Nc1ccc([N+](=O)[O-])cc1 [Ex. 2, EM-D-Leu-Gly-L-Arg-pNA] |
| 140 | CCCC[C@@H](NC(=O)CC(=O)OC)C(=O)NCC(=O)N[C@@H](CCCNC(=N)N)C(=O)Nc1ccc([N+](=O)[O-])cc1 [Ex. 14, MM-D-Nle-Gly-L-Arg-pNA] |
| 105 | CC[C@@H](C)[C@@H](NC(=O)CC(=O)OC)C(=O)N[C@@H](CCC(=O)OC)C(=O)NCC(=O)N[C@@H](CCCNC(=N)N)C(=O)Nc1ccc([N+](=O)[O-])cc1 [Ex. 33, MM-D-Ile-L-Glu(OMe)-Gly-L-Arg-pNA] (X1-[dI]E(OMe)GR-pNA) |
| 145 | COCCOC(=O)N[C@H](CC(C)C)C(=O)NCC(=O)N[C@@H](CCCNC(=N)N)C(=O)Nc1ccc([N+](=O)[O-])cc1 [Ex. 61, Me-OCH2 CH2 O-CO-D-Leu-Gly-L-Arg-pNA.AcOH] |
| 105 | COCCOCCOC(=O)N[C@H](CC(C)C)C(=O)NCC(=O)N[C@@H](CCCNC(=N)N)C(=O)Nc1ccc([N+](=O)[O-])cc1 [Ex. 62, Me-O(CH2 CH2 O)2 -CO-D-Leu-Gly-L-Arg-pNA.AcOH] |
| 110 | COCCOCCOCCOC(=O)N[C@H](CC(C)C)C(=O)NCC(=O)N[C@@H](CCCNC(=N)N)C(=O)Nc1ccc([N+](=O)[O-])cc1 [Ex. 63, MeO(CH2 CH2 O)3 -CO-D-Leu-Gly-L-Arg-pNA] |
| 103 | COCCOCCOCCOCCOCCOCCOCCOC(=O)N[C@H](CC(C)C)C(=O)NCC(=O)N[C@@H](CCCNC(=N)N)C(=O)Nc1ccc([N+](=O)[O-])cc1 [Ex. 64, Me-O(CH2 CH2 O)7 -CO-D-Leu-Gly-L-Arg-pNA.AcOH] |
| 121 | CCCC[C@@H](NC(=O)OCCOCCOCCOC)C(=O)NCC(=O)N[C@@H](CCCNC(=N)N)C(=O)Nc1ccc([N+](=O)[O-])cc1 [Ex. 73] |
| 124 | CCCCOCCOCCOCCOCCOCCOCCOCCOC(=O)N[C@H](CCCC)C(=O)NCC(=O)N[C@@H](CCCNC(=N)N)C(=O)Nc1ccc([N+](=O)[O-])cc1 [Ex. 101] |

| SMILES | Activity (activity towards Factor Xa) [%] |
| --- | --- |
| CC(C)C[C@@H](NS(C)(=O)=O)C(=O)NCC(=O)N[C@@H](CCCNC(=N)N)C(=O)Nc1ccc([N+](=O)[O-])cc1 [CP 1, reference compound] (Ms-[dL]-Gly-Arg-pNA) | 100 |
